# US10544154B2, “Opioid receptor antagonist prodrugs” (Nirsum Laboratories, Inc., priority 2017, dated 2020)
# “Also recorded” adds a separate entry of the source.
# Legend:
# [1] = Polymorph screening of solid state drug substances; assay type: physicochemical; settings: for Dry method and appearance: after stirring at 50 °C for 72 hours; for XRPD results (Dried): dried solid
# [2] = Plasma stability, rat plasma (HPLC-MS); assay type: in vitro ADME; settings: 10 μM, 37° C.
# Experimental: Plasma stability determination of the test compounds in rat, dog, cynomolgus monkey and human plasma is performed using HPLC-MS. For rat, incubations are carried out in 96-well polypropylene plates in 5 aliquots of 70 μL each (one for each time point). […] Five time points are analyzed (0, 15, 120, 480 and 1440 min). For dog, monkey and human, test compounds (2 μM, final solvent concentration 1%) were also incubated at 37° C. and analyzed at five time points (0, 10, 30, 60 and 120 min). All incubations are performed in duplicates. The samples are analyzed by HPLC-MS. The percentage of parent compound remaining after incubation in plasma is determined.
# [3] = Clinical observations for dogs in pharmacokinetic studies; assay type: in vivo, Beagle dogs; settings: for Clinical observation, R-TA / BT: 48 mg/kg
# Experimental: Weight monitoring was done every week.
# The dose formulation (concentration—400 mg base equivalents/ml in sesame oil+1% benzyl alcohol, unless otherwise specified) was administered via deep intramuscularly (unless otherwise specified). The injection vehicle was also dosed via deep intramuscular route (unless otherwise specified) on contralateral site of each animal at study initiation. The animals were sedated with Propofol at 6 mg/kg via IV administration. Following sedation hair was carefully removed from around the injection site and the area gently cleaned. Care will be taken to avoid irritating skin during shaving and cleaning the injection site. Then dogs will be dosed with deep IM administration. At least 2.5 cm depth from the surface into the central aspect of the quadriceps or biceps femoris muscle, by angling the needle toward the femur. If the needle hits the femur, simply draws back slightly and then inject. The dose volume will be determined by the animals' body weight collected on the morning of dosing day. For repeated administration, the injection sites may be rotated to minimize tissue injury.
# [4] = dog D1502 (third dog, c6), 96 hr
# [5] = dog D1502 (third dog, c6), 120 hr
# [6] = dog D1502 (third dog, c6), 144 hr
# [7] = dog D1502 (third dog, c6), 192 hr
# [8] = dog D1502 (third dog, c6), 216 hr
smiles,measurement,setting,value
"C=C1CC[C@@]2(O)C3Cc4ccc(OC(=O)CCCCCCCCCCCCCCCCCCC)c5c4[C@@]2(CCN3CC2CC2)[C@H]1O5 [Compound 16, (4aS,7aS,12bS)-3-(cyclopropylmethyl)-4a-hydroxy-7-methylene-2,3,4,4a,5,6,7,7a-octahydro-1H-4,12-methanobenzofuro[3,2-e]isoquinolin-9-yl icosanoate]",Dry method and appearance,[1]; Acetone,Evaporation/white powder
same,XRPD results (Dried),[1]; Acetone,Pattern A
same,Dry method and appearance,[1]; EtOAc,Evaporation/white powder
same,XRPD results (Dried),[1]; EtOAc,Pattern A
same,Dry method and appearance,[1]; Heptane,Centrifugation/white powder
same,XRPD results (Dried),[1]; Heptane,Pattern A
same,Dry method and appearance,[1]; Isopropanol,Centrifugation/white powder
same,XRPD results (Dried),[1]; Isopropanol,Pattern A
same,Dry method and appearance,[1]; MTBE,Evaporation/white powder
same,XRPD results (Dried),[1]; MTBE,Pattern A
"C=C1CC[C@@]2(O)C3Cc4ccc(OC(=O)OCCCCCCCC)c5c4[C@@]2(CCN3CC2CC2)[C@H]1O5 [Compound 17, (4aS,7aS,12bS)-3-(cyclopropylmethyl)-4a-hydroxy-7-methylene-2,3,4,4a,5,6,7,7a-octahydro-1H-4,12-methanobenzofuro[3,2-e]isoquinolin-9-yl octyl carbonate]","% remaining at time point in minutes, 0 min",[2],100%
same,"% remaining at time point in minutes, 15 min",[2],0%
same,"% remaining at time point in minutes, 120 min",[2],0%
same,"% remaining at time point in minutes, 480 min",[2],0%
same,"% remaining at time point in minutes, 1440 min",[2],0%
"C=C1CC[C@@]2(O)C3Cc4ccc(OC(=O)OCCCCCCCCCC)c5c4[C@@]2(CCN3CC2CC2)[C@H]1O5 [Compound 18, (4aS,7aS,12bS)-3-(cyclopropylmethyl)-4a-hydroxy-7-methylene-2,3,4,4a,5,6,7,7a-octahydro-1H-4,12-methanobenzofuro[3,2-e]isoquinolin-9-yl decyl carbonate]","% remaining at time point in minutes, 0 min",[2],100%
same,"% remaining at time point in minutes, 15 min",[2],0.6%
same,"% remaining at time point in minutes, 120 min",[2],0.3%
same,"% remaining at time point in minutes, 480 min",[2],0.1%
same,"% remaining at time point in minutes, 1440 min",[2],0%
"C=C1CC[C@@]2(O)C3Cc4ccc(OCOC(=O)OCCCCCCCCCC)c5c4[C@@]2(CCN3CC2CC2)[C@H]1O5 [Compound 35, (((4aS,7aS,12bS)-3-(cyclopropylmethyl)-4a-hydroxy-7-methylene-2,3,4,4a,5,6,7,7a-octahydro-1H-4,12-methanobenzofuro[3,2-e]isoquinolin-9-yl)oxy)methyl decyl carbonate]","Clinical observation, R-TA","[3]; dog D1501, 24 hr",Red spots at groin
same,"Clinical observation, R-TA","[3]; dog D1501, 48 hr",Red spots at groin
same,BT,"[3]; dog D1501, 72 hr",at groin/BT: 39.1 °C
same,"Clinical observation, R-TA","[3]; dog D1501, 72 hr",Swelling; also recorded: Red spots
same,BT,"[3]; dog D1501, 96 hr",at groin/BT: 39.0 °C
same,"Clinical observation, R-TA","[3]; dog D1501, 96 hr",Swelling; also recorded: Red spots
same,BT,"[3]; dog D1501, 120 hr",at groin/BT: 39.1 °C
same,"Clinical observation, R-TA","[3]; dog D1501, 120 hr",Swelling; also recorded: Red spots
same,BT,"[3]; dog D1501, 144 hr",groin/BT: 38.7 °C
same,BT,"[3]; dog D1501, 192 hr",groin/BT: 38.2 °C
same,BT,"[3]; dog D1501, 216 hr",groin/BT: 38.6 °C
same,"Clinical observation, R-TA","[3]; dog D1501, 216 hr",redness/Red spots at
same,BT,"[3]; dog D1501, 240 hr",groin/BT: 38.2 °C
same,"Clinical observation, R-TA","[3]; dog D1501, 240 hr",induration
same,BT,"[3]; dog D1501, 264 hr",groin/BT: 38.0 °C
same,"Clinical observation, R-TA","[3]; dog D1501, 264 hr",induration
same,BT,"[3]; dog D1501, 288 hr",groin/BT: 38.4 °C
same,"Clinical observation, R-TA","[3]; dog D1501, 288 hr",induration
same,BT,"[3]; dog D1501, […]",groin/BT: 38.9 °C
same,"Clinical observation, R-TA","[3]; dog D1501, day 13",induration
same,"Clinical observation, R-TA","[3]; dog D1501, day 14",induration
same,"Clinical observation, R-TA","[3]; dog D1501, day 15",induration
same,"Clinical observation, R-TA","[3]; dog D1501, day 16",induration
same,"Clinical observation, R-TA","[3]; dog D1501, day 17",induration
same,"Clinical observation, R-TA","[3]; dog D1501, day 18",induration
same,"Clinical observation, R-TA","[3]; dog D1502 (third dog, c6), 24 hr",Slight swelling/red
same,"Clinical observation, R-TA","[3]; dog D1502 (third dog, c6), 48 hr",Slight swelling/red
same,BT,"[3]; dog D1502 (third dog, c6), 72 hr",leg/BT: 39.3 °C
same,BT,[3]; [4],leg/BT: 39.3 °C
same,"Clinical observation, R-TA",[3]; [4],induration and red
same,BT,[3]; [5],BT: 39.4 °C
same,"Clinical observation, R-TA",[3]; [5],induration and red
same,BT,[3]; [6],BT: 39.0 °C
same,"Clinical observation, R-TA",[3]; [6],induration and red
same,BT,[3]; [7],at calf/BT: 39.2 °C
same,"Clinical observation, R-TA",[3]; [7],Obvious swelling
same,BT,[3]; [8],calf/BT: 39.2 °C
same,"Clinical observation, R-TA",[3]; [8],red spot
same,BT,"[3]; dog D1502 (third dog, c6), 240 hr",calf/BT: 38.9 °C
same,BT,"[3]; dog D1502 (third dog, c6), 264 hr",38.7 °C
same,BT,"[3]; dog D1502 (third dog, c6), 288 hr",38.7 °C
same,BT,"[3]; dog D1502 (third dog, c6), […]",at calf/BT: 39.3 °C
same,"Clinical observation, R-TA","[3]; dog D1502 (third dog, c6), day 20",Not obvious
same,BT,"[3]; dog D1502, 72 hr",39.6 °C
same,"Clinical observation, R-TA","[3]; dog D1502, 72 hr",red
same,BT,"[3]; dog D1502, 96 hr",38.9 °C
same,BT,"[3]; dog D1502, 120 hr",39.6 °C
same,BT,"[3]; dog D1502, 144 hr",38.9 °C
same,"Clinical observation, R-TA","[3]; dog D1502, 144 hr",redness
same,BT,"[3]; dog D1502, 192 hr",BT: 38.7 °C
same,BT,"[3]; dog D1502, 216 hr",BT: 39.2 °C
same,BT,"[3]; dog D1502, 240 hr",BT: 38.6 °C
same,BT,"[3]; dog D1502, 264 hr",BT: 38.4 °C
same,BT,"[3]; dog D1502, 288 hr",BT: 38.6 °C
same,BT,"[3]; dog D1502, […]",39.9 °C
"C=C1CC[C@@]2(O)C3Cc4ccc(OC(=O)NC(C)(C)C)c5c4[C@@]2(CCN3CC2CC2)[C@H]1O5 [Compound 40, (4aS,7aS,12bS)-3-(cyclopropylmethyl)-4a-hydroxy-7-methylene-2,3,4,4a,5,6,7,7a-octahydro-1H-4,12-methanobenzofuro[3,2-e]isoquinolin-9-yl tert-butylcarbamate]",Dry method and appearance,[1]; Acetone,Evaporation/white powder
same,XRPD results (Dried),[1]; Acetone,Amorphous
same,Dry method and appearance,[1]; EtOAc,Evaporation/white powder
same,XRPD results (Dried),[1]; EtOAc,Pattern A
same,Dry method and appearance,[1]; Heptane,Centrifugation/white powder
same,XRPD results (Dried),[1]; Heptane,Pattern A
same,Dry method and appearance,[1]; Isopropanol,Evaporation/oil
same,XRPD results (Dried),[1]; Isopropanol,Amorphous
same,Dry method and appearance,[1]; MTBE,Evaporation/white powder
same,XRPD results (Dried),[1]; MTBE,Amorphous
"C=C1CC[C@@]2(O)C3Cc4ccc(OCOC(=O)CCCCCCCCCCCCC)c5c4[C@@]2(CCN3CC2CC2)[C@H]1O5 [Compound 45, (((4aS,7aS,12bS)-3-(cyclopropylmethyl)-4a-hydroxy-7-methylene-2,3,4,4a,5,6,7,7a-octahydro-1H-4,12-methanobenzofuro[3,2-e]isoquinolin-9-yl)oxy)methyl tetradecanoate]",Clinical observations (cell spans L-vehicle and R-TA),"[3]; dog D1503, 96 mg/kg, Day 1",Liquid feces about 20 mL
